Assay results as given in US12194033B2, “Glycine receptor modulators and methods of use” (University of Pittsburgh—Of the Commonwealth System of …, priority 2017, dated 2025).

How the values were obtained:
CD1 mice = assay: Hargreaves test under CFA-induced hyperalgesic conditions in CD1 mice; format: in vivo; conditions: for response time for paw withdrawal compared to vehicle: 0.1 mg/kg, CD1 mice, CFA-induced hyperalgesic conditions
Experimental: Under CFA-induced hyperalgesic conditions, the maximum possible effect, % MPE=(response−baseline)/(cut-off time−baseline), was measured for the application of compound 1 alone (0.05 mg/kg, blue, n=12; 0.01 mg/kg, orange, n=4), morphine alone (0.1 mg/kg, green, n=8), and compound 1 with morphine at three different dosage combinations: 0.05 mg/kg compound 1 with 0.1 mg/kg morphine (light blue, n=6), 0.01 mg/kg compound 1 with 0.1 mg/kg morphine (pink, n=10), and 0.01 mg/kg compound 1 with 0.01 mg/kg morphine (red, n=4). […] Error bars designate the standard error of the mean.
0.05 mg/kg compound 1 was tested for tolerance in CFA-treated mice (red). Under CFA-induced hyperalgesic conditions (24 hours post-application of CFA), 0.05 mg/kg compound 1 was administered to CD1 mice and responses to the Hargreaves test were measured immediately after the initial injection (application time=0) and again after a repeated dose given 1.5 hours (FIG. 7A) or 24 hours (FIG. 7B) after the effects of the first dose wore off. The black circles represent the responses of naïve mice (i.e., no administration of compound 1 or CFA), and the red circles represent the responses of mice receiving compound 1 under CFA-induced hyperalgesic conditions. […] Error bars designate the standard error of the mean (n=4).
Responses of CD1 mice to the Hargreaves test were assessed after application of 0.1 mg/kg of the indicated compounds (black) or vehicle (white) under CFA-induced hyperalgesic conditions as shown in FIGS. 8A-8H. The assessed compounds were compounds 1 (8A), 2 (8B), 3 (8C), 4 (8D), 5 (8E), 6 (8F), 7 (8G), and 8 (8H). […] Error bars designate the standard error of the mean (n≥4).
Dose response curves from the Hargreaves test in mice with a CFA-inflamed left hind paw at 1.5 and 2 hr after intraperitoneal injection of compound 1. Percent Maximum Possible Effect (% MPE) was calculated from paw withdrawal latencies.
Tolerance to compound 1 (MJPY1) and compound 3 (MJPY2) was measured by repeated dosing in the Hargreaves Test. […] Mice (n=6/group) received repeated i.p. injections of vehicle or 0.1 mg/kg compound 1 (MJPY1) or compound 3 (MJPY2) once a day for 5 days. CFA inflammation was induced on day 4, and PWL was measured 0.5 hr before and every 10 min after treatment on day 5. Data were binned to 30-min blocks (mean±SEM).

mice = assay: Two-plate thermal preference test (30° C. vs 55° C.); format: in vivo; conditions: for percentage of inactive time on the hot plate (55° C.): CD1 mice, CFA, vs naïve
Experimental: Responses to the two-plate thermal preference test were assessed under naïve conditions and 1 hour after administration of 0.2 mg/kg compound 1, 0.1 mg/kg morphine, or 0.2 mg/kg compound 1+0.1 mg/kg morphine. Unrestrained mice were exposed to plates set to normal and hot temperatures (30° C. and 55° C., respectively). Temperature preference was measured by percentage time spent on the hot plate (55° C.) over the course of 4 minutes, where 50% indicates no preference between the two temperatures. […] Error bars designate the standard error of the mean (n≥5).
Unrestrained mice were exposed to plates set to normal and hot temperatures (30° C. and 55° C., respectively) for 10 minutes. […] Error bars designate the standard error of the mean (n=4).
The percent inactivity on the 55° C. plate (mean±SEM) is a measure of heat tolerance. Significance was assessed by one-way ANOVA with LSD post-hoc test.

[1] = 0.1 mg/kg i.p., 1 hour after injection
[2] = 0.1 mg/kg i.p., 48 hours after injection

| Structure (SMILES) | response time for paw withdrawal compared to vehicle (CD1 mice) | other results |
| --- | --- | --- |
| O=C(NCc1ccc(C(=O)N2CCCCC2)cc1)c1ccc2c3c(cccc13)CC2 [compound 2, N-{[4-(piperidine-1-carbonyl)phenyl]methyl}-1,2-dihydroacenaphthylene-5-carboxamide] | increase in the response time |  |
| NC(=O)CNC(=O)c1ccc(CNC(=O)c2ccc3c4c(cccc24)CC3)cc1 [compound 3, N-({4-[(carbamoylmethyl)-carbamoyl]phenyl}methyl)-1,2-dihydroacenaphthylene-5-carboxamide] | increase in the response time | tolerance after repeated dosing (PWL) (CD1 mice; 0.1 mg/kg i.p. once a day for 5 days, CFA on day 4): negligible tolerance; percentage of inactive time on the hot plate (55° C.) (mice; [1]): significantly increased; percentage of inactive time on the hot plate (55° C.) (mice; [2]): significantly increased; analgesic action compared with morphine (percent inactivity on the 55° C. plate) (mice; 0.1 mg/kg i.p., male CD1 mice, 24 hr after CFA, 1 hr after treatment, same dose): better than morphine |
| CN(C)C(=O)c1cccc(CNC(=O)c2ccc3c4c(cccc24)CC3)c1 [compound 4, N-[[3-(dimethylcarbamoyl)-phenyl]methyl]-1,2-dihydroacenaphthylene-5-carboxamide] | increase in the response time | percentage of inactive time on the hot plate (55° C.) (mice; [1]): increase in the inactive time; percentage of inactive time on the hot plate (55° C.) (mice; [2]): no effect |
| NC(=O)c1ccc(CNC(=O)c2ccc3c4c(cccc24)CC3)cc1 [compound 5, N-[(4-carbamoylphenyl)-methyl]-1,2-dihydroacenaphthylene-5-carboxamide] | increase in the response time |  |
| O=C1CN(C(=O)c2ccc(CNC(=O)c3ccc4c5c(cccc35)CC4)cc2)CCN1 [compound 6, N-{[4-(3-oxopiperazine-1-carbonyl)phenyl]methyl}-1,2-dihydroacenaphthylene-5-carboxamide] | increase in the response time |  |
| CCN(Cc1ccc(C(=O)N(C)C)cc1)C(=O)c1ccc2c3c(cccc13)CC2 [compound 7, N-{[4-(dimethylcarbamoyl)-phenyl]methyl}-N-ethyl-1,2-dihydroacenaphthylene-5-carboxamide] | increase in the response time |  |
| CCNC(=O)c1ccc(CNC(=O)c2ccc3c4c(cccc24)CC3)cc1 [compound 8, N-{[4-(ethylcarbamoyl)-phenyl]methyl}-1,2-dihydroacenaphthylene-5-carboxamide] | increase in the response time |  |
| CN1CC[C@]23c4c5ccc(O)c4O[C@H]2[C@@H](O)C=C[C@H]3[C@H]1C5 [morphine, reference compound] |  | percentage time spent on the hot plate (55° C.) compared to naïve mice (mice; normal nociception, 1 hour after 0.2 mg/kg compound 1, 0.1 mg/kg morphine, or both, 4 minutes): no significant analgesic response |
